From patent US6548488B2, “Composition comprising camptothecin or a camptothecin derivative and an alkylating agent for the treatment of cancer” (priority 2000, dated 2003) come the findings set out here.

Molecules are shown by their SMILES. Where two headings read alike, the source gives them in different places. Marks after values point to notes of the source that are not given here.

Data set [1] has as its system mammary adenocarcinoma MA16/C/sp. The protocol: (§1) This efficacy may be quantified, for example by the log10 cell kill, which is determined by the following formula:
(§2) log10 cell kill=T-C(days)/3.32×Td
(§3) in which T-C represents the time taken for the cells to grow, which is the mean time in days for the tumors of the treated group (T) to reach a predetermined value (1 g for example) and the tumors of the control group (C) to reach the same value, and Td represents the time in days needed for the volume of the tumor in the control group to double (T. H. Corbett et al., Cancer, 40: 2660-2680 (1977); F. M. Schabel et al., Cancer Drug Development, Part B, Methods in Cancer Research, 17: 3-51, New York, Academic Press Inc. (1979)). A product is considered to be active if the log10 cell kill is greater than or equal to 0.7. A product is considered to be very active if the log10 cell kill is greater than 2.8.
The effect of the combination of CPT-11 and cyclophosphamide was evaluated in a three arn study in mice bearing mammary adenocarcinoma MA16/C/sp. In the first arm, four dose levels of CPT-11 were given orally on days three through seven. In the second arm, five dose levels of cyclophosphamide were given intravenously on days three, five and seven. In the combination third arm, eight dosage levels of CPT-11 were administered orally on days three through seven, with administration of eight dosage levels of cyclophosphamide intravenously on days three, five and seven. This third arm illustrated an example of semi-simultaneous administration.

A further data set deals with P388. In kind it is in vivo, mice. The following applies: for %ILS: highest non-toxic dose.
The subject of a further data set is P388/CPT. Description: Chemosensitivity of camptothecin-resistant i.p. P388/CPT leukemia, increase in life span. The format is in vivo, mice. The conditions noted are these: for Comment: response of P388/CPT. The method, then:
Cross-resistance was measured in murine leukemia cell lines. P388/CPT is a camptothecin-resistant leukemia that was established in vitro (Biochem. Pharmacol., 45: 339 (1993) and maintained in vivo by i.p. passages in DBA2 female mice. The chemosensitivity of i.p. P388/CPT was evaluated with i.v. P388 sensitive reference drugs with different mechanisms of action. Antitumor efficacy was determined at the highest non-toxic dose as percent increase in life span (ILS), where:
ILS=100×[(median day of death (MDD) of treated mice)−(MDD control mice)]÷(MDD control mice)
A minimal level of activity equals an ILS of greater than 26%. […] Table III tabulates the results from this study.

In a further data set the test system is MA16/C, sc. The method, then: as §1, §2, §3
The effectiveness of irinotecan combination chemotherapy methods were tested in a dose response study in a murine tumor model. Three arms were evaluated for tolerance and efficacy. Tolerance was measured by mortality, body weight loss at nadir, host recovery time, and combination toxicity index. Efficacy end points for solid tumor models were tumor growth delay (T/C), log10 cell kill (LCK, defined above), tumor regressions (i.e., complete remission (CR),or partial remission (PR)). For non-solid tumors, such as leukemia, efficacy was measured as the increase in life span (ILS).
Combination toxicity index (CTI) was calculated as the sum of the fraction of LD10's for each agent used in each combination (Cancer Treatment Reports, 66(5): 1187-1200 (1982)). The LD10 for the single agent was obtained by plotting the toxicity of that agent and the dosage in mg/kg as a log probit graph. Subsequently, the CTI LD10 was obtained by plotting as a log probit graph the observed lethality and the corresponding CTI calculated as the sum of the fraction of the LD10 of each single agent. When the CTI equals one, only 50% of the LD10's of each agent can be used in combination without additional toxicity, and when the CTI equals two, 100% of the LD10's of each agent can be used in combination without additional toxicity.

Another data set has as its system P03. The data set is described as follows: Oral vs i.v. irinotecan, P03 tumor in B6D2F1 mice. The format is in vivo. The following applies: twice daily; for LCK: optimal total dose. The protocol: as §2
(§4) Three arms were evaluated for tolerance and efficacy.
(§5) The optimal total dose for oral and intravenous administration routes for irinotecan alone in various murine models is indicated in Table II.

For another data set, the system named is C51. The data set is described as follows: Oral vs i.v. irinotecan, C51 tumor in BALB/c mice. The format is in vivo. The conditions noted are these: days 5, 7, 9, 13, 15, twice daily; for LCK: optimal total dose. The method, then: as §2, §4, §5
The subject of another data set is GOS. The data set is described as follows: Oral vs i.v. irinotecan, GOS tumor in B6D2F1 mice. The format is in vivo. The following applies: for LCK: optimal total dose. The method, then: as §2, §4, §5
The test system of a further data set is MA16/C. The data set is described as follows: Oral vs i.v. irinotecan, MA16/C tumor in C3H/HeN mice. In kind it is in vivo. The following applies: for Optimal Total Dose: days 5-9; for LCK: days 5-9, optimal total dose. The method, then:
as §2, §4, §5

Data set [2] can be described thus: Tolerance of oral vs i.v. irinotecan in tumor bearing mice. In kind it is in vivo. The following applies: both methods of administration (oral and i.v.). The protocol:
as §4

The next data set concerns C26. Description: Oral vs i.v. irinotecan, C26 tumor in BALB/c mice. The format is in vivo. The conditions noted are these: for LCK: optimal total dose. The protocol:
as §2, §4, §5

The mark [3] stands for this setting: CPA i.v. 37.0 mg/kg/adm, days 3, 5, 7.
[4] abbreviates: CPA i.v. 60.0 mg/kg/adm, days 3, 5, 7.
Setting [5] is: CPA i.v. 97.0 mg/kg/adm, days 3, 5, 7 (HNTD).
[6] abbreviates: CPA i.v. 156.0 mg/kg/adm, days 3, 5, 7.
[7] abbreviates: CPT-11 p.o. 25.0 mg/kg/adm, days 3-7.
[8] abbreviates: CPT-11 p.o. 40.0 mg/kg/adm, days 3-7 (HNTD).

Consider `O=P1(N(CCCl)CCCl)NCCCO1` (centres unmarked) [CPA, cyclophosphamide], for which, in [1] (CPA i.v. 23.0 mg/kg/adm, days 3, 5, 7), the Comments result is reported as “Inactive”. Further, in [1] (setting [3]), the Comments result was “Active”, the Log10 cell kill is recorded as 1.0, the “T-C” value is recorded as 3.8 days and the “Time for median tumor to reach 750 mg” value was found to be 12.0 days. Moreover, in [1] (setting [4]), the Comments result is on record as “Active”, the Log10 cell kill was found to be 1.9, the “T-C” value is 6.9 days and the “Time for median tumor to reach 750 mg” value is 15.1 days. Further, the Comments result in data set [1] (CPA i.v. 97.0 mg/kg/adm, days 3, 5, 7) is on record as “HNTD Highly Active”. In data set [1] (setting [5]), the Log10 cell kill was 2.8, the “T-C” value turned out to be 10.3 days and the “Time for median tumor to reach 750 mg” value worked out at 18.5 days. Further, in data set [1] (setting [6]), the Comments result is “Toxic”, the Log10 cell kill result is “NTBA”, the “T-C (days)” value is “NTBA” and the “Time for median tumor to reach 750 mg in days” value was “NTBA”. For the same molecule, in the data set on P388 (i.v.), the “sensitivity of the camptothecin sensitive cell line” value was “very sensitive” and the “%ILS” value came to 245%. Besides, in the data set on P388/CPT (i.v., highest non-toxic dose), the “%ILS” value amounted to 153% and the TFS is 1/5. The Comment entry in the data set on P388/CPT (i.v., listed as Cyclophosphamide) was “sensitive”. For the same molecule, the Comment result in the data set on P388/CPT (i.v., listed as cyclophosphamide) was “very sensitive”. Besides, the “HNTD Dose” value in the data set with MA16/C, sc (cyclophosphamide, i.v. alone, days 3, 5, 7) was determined as 291 mg/kg. Moreover, the LCK in the data set with MA16/C, sc (cyclophosphamide, i.v. alone, days 3, 5, 7, at HNTD) stood at 2.8.

As for `CC[C@@]1(O)C(=O)OCc2c1cc1n(c2=O)Cc2cc3ccccc3nc2-1` [CPT, camptothecin], the “%ILS” value is listed as 82% in the data set on P388 (sc) and 0% with P388/CPT (sc, highest non-toxic dose). The Comment entry in the data set with P388/CPT (sc) was “resistant”.

For the molecule `CCc1c2c(nc3ccc(OC(=O)N4CCC(N5CCCCC5)CC4)cc13)-c1cc3c(c(=O)n1C2)COC(=O)[C@]3(O)CC` [CPT-11, irinotecan], the Comments entry in data set [1] (setting [7]) is on record as “Active”; in data set [1] (CPT-11 p.o. 40.0 mg/kg/adm, days 3-7), “HNTD Active”; in [1] (CPT-11 p.o. 64.0 mg/kg/adm, days 3-7) it was “Toxic”; in [1] (mouse, in vivo, po, 103 mg/kg), “Toxic”. Also, the values for the Log10 cell kill in [1] (setting [7]) and in data set [1] (setting [8]) were 1.1 and 2.0, respectively. The results for the “T-C” value in data set [1] (setting [7]) and in data set [1] (setting [8]) were 4.1 days and 7.3 days, respectively. Moreover, the “Time for median tumor to reach 750 mg” value in data set [1] (setting [7]) was determined as 12.3 days; in data set [1] (setting [8]), 15.5 days. The “Optimal Total Dose” value in the data set on P03 (i.v.) is recorded as 346.2 mg/kg; in the data set on P03 (oral), 900 mg/kg; in the data set on C51 (i.v.), 615 mg/kg; in the data set on C51 (oral), 845 mg/kg; in the data set on GOS (i.v., days 3, 5, 7 twice daily), 346.2 mg/kg; in the data set on GOS (oral, days 3-7, twice daily), 900 mg/kg. Besides, the “Optimal Total Dose” value is recorded as 130.5 mg/kg with MA16/C (i.v.); 230.5 mg/kg in the data set on MA16/C (oral); 228 mg/kg with C26 (i.v., twice daily); 558 mg/kg with C26 (oral, days 3-7, twice daily). Moreover, the LCK is 3.2† in the data set with P03 (i.v.); 3.4† in the data set with P03 (oral); 3.0 in the data set on C51 (i.v.); 2.5 in the data set with C51 (oral); 2.2 with GOS (i.v., days 3, 5, 7 twice daily); 2.1 with GOS (oral, days 3-7, twice daily). Also, the LCK was 2.6 in the data set on MA16/C (i.v.); 2.7 in the data set with MA16/C (oral); 0.7 in the data set with C26 (i.v., twice daily); 0.9 in the data set with C26 (oral, days 3-7, twice daily); 2.0 in the data set with MA16/C, sc (CPT-11, i.v. alone, days 3-7, at HNTD). In addition, the “%ILS” value in the data set on P388 (i.v.) was found to be 91%; in the data set on P388/CPT (i.v., highest non-toxic dose), 0%. Moreover, the Comment entry with P388/CPT (i.v.) was “resistant”. The molecule also came in with a body weight loss in data set [2] of 8.5%. Besides, the nadir in [2] is 7 days post last administration. For the same molecule, the “HNTD Dose” value in the data set with MA16/C, sc (CPT-11, i.v. alone, days 3-7) stood at 200 mg/kg.
